{"source": "PubChem BioAssay (NCI)", "assay_in_all_cases": "NCI-60 cell line screen, 384-well format", "key": {"[1]": {"test_system": "OVCAR-5 ovarian"}, "[2]": {"test_system": "NCI-H522 lung"}, "[3]": {"test_system": "MALME-3M melanoma"}, "[4]": {"test_system": "HOP-62 NSCLC"}, "[5]": {"test_system": "DU-145 prostate"}, "[6]": {"test_system": "SNB-75 CNS"}, "[7]": {"test_system": "MDA-MB-231 breast"}, "[8]": {"test_system": "UACC-257 melanoma"}, "[9]": {"test_system": "MDA-MB-435 melanoma"}, "[10]": {"test_system": "HS 578T breast"}, "[11]": {"test_system": "SK-OV-3 ovarian"}, "[12]": {"test_system": "HCC-2998 colon"}, "[13]": {"test_system": "NCI-H322M lung"}, "[14]": {"test_system": "U251 glioblastoma"}, "[15]": {"test_system": "NCI-H460 NSCLC"}, "[16]": {"test_system": "OVCAR-8 ovarian"}, "[17]": {"test_system": "LOX IMVI melanoma"}, "[18]": {"test_system": "SNB-19 CNS"}, "[19]": {"test_system": "HL-60(TB) leukemia"}, "[20]": {"test_system": "786-0 renal"}, "[21]": {"test_system": "MCF7 breast"}, "[22]": {"test_system": "UACC-62 melanoma"}, "[23]": {"test_system": "SF-268 CNS"}, "[24]": {"test_system": "K-562 leukemia"}, "[25]": {"test_system": "M14 melanoma"}, "[26]": {"test_system": "RXF 393 renal"}, "[27]": {"test_system": "BT-549 breast"}, "[28]": {"test_system": "MDA-MB-468 breast"}, "[29]": {"test_system": "OVCAR-3 ovarian"}, "[30]": {"test_system": "SK-MEL-28 melanoma"}, "[31]": {"test_system": "NCI/ADR-RES ovarian"}, "[32]": {"test_system": "OVCAR-4 ovarian"}, "[33]": {"test_system": "A498 renal"}, "[34]": {"test_system": "EKVX NSCLC"}, "[35]": {"test_system": "A549 NSCLC"}, "[36]": {"test_system": "RPMI-8226 leukemia"}, "[37]": {"test_system": "SK-MEL-5 melanoma"}, "[38]": {"test_system": "SN12C renal"}, "[39]": {"test_system": "IGROV1 ovarian"}, "[40]": {"test_system": "SW-620 colon"}, "[41]": {"test_system": "NCI-H23 lung"}, "[42]": {"test_system": "TK-10 renal"}, "[43]": {"test_system": "SF-539 CNS"}, "[44]": {"test_system": "HCT-15 colon"}, "[45]": {"test_system": "KM12 colon"}, "[46]": {"test_system": "UO-31 renal"}, "[47]": {"test_system": "COLO 205 colon"}, "[48]": {"test_system": "CCRF-CEM leukemia"}, "[49]": {"test_system": "MOLT-4 leukemia"}}, "note": "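The concentration for 50% growth inhibition is given as GI50. TGI marks complete inhibition of growth.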", "data": [{"smiles": "CN1CCN(Cc2ccc(Nc3ncc(Cl)c(Nc4ccccc4S(=O)(=O)N(C)C)n3)cc2)CC1", "values": [{"measurement": "GI50", "setting": "[1]", "result": 128, "unit": "nM"}, {"measurement": "TGI", "setting": "[1]", "result": 605, "unit": "nM"}, {"measurement": "GI50", "setting": "[2]", "result": "< 10", "unit": "nM"}, {"measurement": "TGI", "setting": "[2]", "result": 170, "unit": "nM"}, {"measurement": "GI50", "setting": "[3]", "result": 116, "unit": "nM"}, {"measurement": "TGI", "setting": "[3]", "result": 252, "unit": "nM"}, {"measurement": "GI50", "setting": "[4]", "result": 20.8, "unit": "nM"}, {"measurement": "TGI", "setting": "[4]", "result": 73.6, "unit": "nM"}, {"measurement": "GI50", "setting": "[5]", "result": 45.2, "unit": "nM"}, {"measurement": "TGI", "setting": "[5]", "result": 15500, "unit": "nM"}, {"measurement": "GI50", "setting": "[6]", "result": 200, "unit": "nM"}, {"measurement": "TGI", "setting": "[6]", "result": 363, "unit": "nM"}, {"measurement": "GI50", "setting": "[7]", "result": 167, "unit": "nM"}, {"measurement": "TGI", "setting": "[7]", "result": 1130, "unit": "nM"}, {"measurement": "GI50", "setting": "[8]", "result": 111, "unit": "nM"}, {"measurement": "TGI", "setting": "[8]", "result": 253, "unit": "nM"}, {"measurement": "GI50", "setting": "[9]", "result": 149, "unit": "nM"}, {"measurement": "TGI", "setting": "[9]", "result": 441, "unit": "nM"}, {"measurement": "GI50", "setting": "[10]", "result": 181, "unit": "nM"}, {"measurement": "TGI", "setting": "[10]", "result": 356, "unit": "nM"}, {"measurement": "GI50", "setting": "[11]", "result": 280, "unit": "nM"}, {"measurement": "TGI", "setting": "[11]", "result": "> 100000", "unit": "nM"}, {"measurement": "GI50", "setting": "[12]", "result": 32, "unit": "nM"}, {"measurement": "TGI", "setting": "[12]", "result": 251, "unit": "nM"}, {"measurement": "GI50", "setting": "[13]", "result": 129, "unit": "nM"}, {"measurement": "TGI", "setting": "[13]", "result": 351, "unit": "nM"}, {"measurement": "GI50", "setting": "[14]", "result": 146, "unit": "nM"}, {"measurement": "TGI", "setting": "[14]", "result": 920, "unit": "nM"}, {"measurement": "GI50", "setting": "[15]", "result": "< 10", "unit": "nM"}, {"measurement": "TGI", "setting": "[15]", "result": 10.9, "unit": "nM"}, {"measurement": "GI50", "setting": "[16]", "result": 134, "unit": "nM"}, {"measurement": "TGI", "setting": "[16]", "result": 420, "unit": "nM"}, {"measurement": "GI50", "setting": "[17]", "result": 20.5, "unit": "nM"}, {"measurement": "TGI", "setting": "[17]", "result": 201, "unit": "nM"}, {"measurement": "GI50", "setting": "[18]", "result": 224, "unit": "nM"}, {"measurement": "TGI", "setting": "[18]", "result": "> 100000", "unit": "nM"}, {"measurement": "GI50", "setting": "[19]", "result": "< 10", "unit": "nM"}, {"measurement": "TGI", "setting": "[19]", "result": 17.3, "unit": "nM"}, {"measurement": "GI50", "setting": "[20]", "result": 109, "unit": "nM"}, {"measurement": "TGI", "setting": "[20]", "result": 1140, "unit": "nM"}, {"measurement": "GI50", "setting": "[21]", "result": "< 10", "unit": "nM"}, {"measurement": "TGI", "setting": "[21]", "result": 1310, "unit": "nM"}, {"measurement": "GI50", "setting": "[22]", "result": "< 10", "unit": "nM"}, {"measurement": "TGI", "setting": "[22]", "result": 123, "unit": "nM"}, {"measurement": "GI50", "setting": "[23]", "result": 18.3, "unit": "nM"}, {"measurement": "TGI", "setting": "[23]", "result": 78.8, "unit": "nM"}, {"measurement": "GI50", "setting": "[24]", "result": 16.5, "unit": "nM"}, {"measurement": "TGI", "setting": "[24]", "result": 233, "unit": "nM"}, {"measurement": "GI50", "setting": "[25]", "result": 98, "unit": "nM"}, {"measurement": "TGI", "setting": "[25]", "result": 235, "unit": "nM"}, {"measurement": "GI50", "setting": "[26]", "result": 162, "unit": "nM"}, {"measurement": "TGI", "setting": "[26]", "result": 307, "unit": "nM"}, {"measurement": "GI50", "setting": "[27]", "result": 117, "unit": "nM"}, {"measurement": "TGI", "setting": "[27]", "result": 257, "unit": "nM"}, {"measurement": "GI50", "setting": "[28]", "result": 41.9, "unit": "nM"}, {"measurement": "TGI", "setting": "[28]", "result": 151, "unit": "nM"}, {"measurement": "GI50", "setting": "[29]", "result": 52.7, "unit": "nM"}, {"measurement": "TGI", "setting": "[29]", "result": 243, "unit": "nM"}, {"measurement": "GI50", "setting": "[30]", "result": 133, "unit": "nM"}, {"measurement": "TGI", "setting": "[30]", "result": 274, "unit": "nM"}, {"measurement": "GI50", "setting": "[31]", "result": 191, "unit": "nM"}, {"measurement": "TGI", "setting": "[31]", "result": 481, "unit": "nM"}, {"measurement": "GI50", "setting": "[32]", "result": 299, "unit": "nM"}, {"measurement": "TGI", "setting": "[32]", "result": 888, "unit": "nM"}, {"measurement": "GI50", "setting": "[33]", "result": 136, "unit": "nM"}, {"measurement": "TGI", "setting": "[33]", "result": 671, "unit": "nM"}, {"measurement": "GI50", "setting": "[34]", "result": 192, "unit": "nM"}, {"measurement": "TGI", "setting": "[34]", "result": 478, "unit": "nM"}, {"measurement": "GI50", "setting": "[35]", "result": "< 10", "unit": "nM"}, {"measurement": "TGI", "setting": "[35]", "result": 750, "unit": "nM"}, {"measurement": "GI50", "setting": "[36]", "result": "< 10", "unit": "nM"}, {"measurement": "TGI", "setting": "[36]", "result": 32.6, "unit": "nM"}, {"measurement": "GI50", "setting": "[37]", "result": 29.2, "unit": "nM"}, {"measurement": "TGI", "setting": "[37]", "result": 186, "unit": "nM"}, {"measurement": "GI50", "setting": "[38]", "result": 140, "unit": "nM"}, {"measurement": "TGI", "setting": "[38]", "result": 358, "unit": "nM"}, {"measurement": "GI50", "setting": "[39]", "result": 62.6, "unit": "nM"}, {"measurement": "TGI", "setting": "[39]", "result": 21200, "unit": "nM"}, {"measurement": "GI50", "setting": "[40]", "result": 44.8, "unit": "nM"}, {"measurement": "TGI", "setting": "[40]", "result": 306, "unit": "nM"}, {"measurement": "GI50", "setting": "[41]", "result": 98.2, "unit": "nM"}, {"measurement": "TGI", "setting": "[41]", "result": 234, "unit": "nM"}, {"measurement": "GI50", "setting": "[42]", "result": 393, "unit": "nM"}, {"measurement": "TGI", "setting": "[42]", "result": 2880, "unit": "nM"}, {"measurement": "GI50", "setting": "[43]", "result": 18.1, "unit": "nM"}, {"measurement": "TGI", "setting": "[43]", "result": 139, "unit": "nM"}, {"measurement": "GI50", "setting": "[44]", "result": 72.5, "unit": "nM"}, {"measurement": "TGI", "setting": "[44]", "result": 371, "unit": "nM"}, {"measurement": "GI50", "setting": "[45]", "result": 16.5, "unit": "nM"}, {"measurement": "TGI", "setting": "[45]", "result": 298, "unit": "nM"}, {"measurement": "GI50", "setting": "[46]", "result": 144, "unit": "nM"}, {"measurement": "TGI", "setting": "[46]", "result": 448, "unit": "nM"}, {"measurement": "GI50", "setting": "[47]", "result": 16.9, "unit": "nM"}, {"measurement": "TGI", "setting": "[47]", "result": 128, "unit": "nM"}, {"measurement": "GI50", "setting": "[48]", "result": "< 10", "unit": "nM"}, {"measurement": "TGI", "setting": "[48]", "result": 15.3, "unit": "nM"}, {"measurement": "GI50", "setting": "[49]", "result": "< 10", "unit": "nM"}]}]}
